{"source": "ChEMBL document CHEMBL2346631", "about": "“Thiazolidine-2,4-diones: progress towards multifarious applications” (Bioorg Med Chem, 2013)", "system": "Mus musculus", "test": "Hypoglycemic activity in KKAy mouse assessed as reduction of blood glucose level at 38 mg/kg/day, po relative to control", "type": "functional", "set-up": "scale not given: the % may be the effect or the level left", "data": [{"smiles": "Cc1oc(-c2ccccc2)nc1CCOc1ccc(CC2C(=O)NOC2=O)cc1", "note": "(stereo unspecified) [REGLITAZAR]", "values": [{"measurement": "Activity", "result": 25, "unit": "%"}]}]}
